Source: patent US20260207615A1, “FLUOROPYRIDOPYRIMIDINE AND FLUOROQUINAZOLINE DERIVATIES AND METHODS OF USE THEREOF” (Frontier Medicines Corporation, priority 2022, published 2026)

Molecular target: T1, KRAS G12C and cRAF interaction (Homo sapiens, UniProt P01116, C118S/C51S/C80L/G12C)
T1 construct: truncated version comprising amino acids 1-169
Test: Inhibition of KRAS G12C and cRAF binding (AlphaScreen)
Assay type: biochemical
Details: KRAS G12C (Cys-light, aa 1-169) preloaded with GMPPNP, cRaf RBD (aa 50-131), 2 hours incubation
Summary of the method: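 Biotin-AviTag KRAS G12C (Cys-light C51S/C80L/C118S, aa 1-169, GMPPNP-loaded; 0.5 nM final)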

T1 sequence (P01116 1-169 isoform P01116-2 G12C/C51S/C80L/C118S): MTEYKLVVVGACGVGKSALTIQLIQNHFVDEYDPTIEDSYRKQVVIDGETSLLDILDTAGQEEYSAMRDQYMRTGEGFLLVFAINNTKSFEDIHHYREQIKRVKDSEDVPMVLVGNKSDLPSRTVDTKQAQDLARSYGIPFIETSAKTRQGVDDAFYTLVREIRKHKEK

| IC50 [nM] | Compound |
| --- | --- |
| < 10 | Cc1cc(/C=C(\F)C(=O)N2CCN(c3nc(OC[C@@]45CCCN4C[C@H](F)C5)nc4c(F)c(-c5cccc6ccc(F)c(F)c56)ncc34)CC23COC3)nc(C)n1 [Example 59, (Z)-1-(8-(7-(7,8-difluoronaphthalen-1-yl)-8-fluoro-2-(((2R,7aS)-2-fluorotetrahydro-1H-pyrrolizin-7a(5H)-yl)methoxy)pyrido[4,3-d]pyrimidin-4-yl)-2-oxa-5,8-diazaspiro[3.5]nonan-5-yl)-3-(2,6-dimethylpyrimidin-4-yl)-2-fluoroprop-2-en-1-one] |
| < 10 | Cc1nccc(/C=C(\F)C(=O)N2CCN(c3nc(OC[C@@]45CCCN4C[C@H](F)C5)nc4c(F)c(-c5cccc6ccc(F)c(F)c56)ncc34)CC23COC3)n1 [Example 60, (Z)-1-(8-(7-(7,8-difluoronaphthalen-1-yl)-8-fluoro-2-(((2R,7aS)-2-fluorotetrahydro-1H-pyrrolizin-7a(5H)-yl)methoxy)pyrido[4,3-d]pyrimidin-4-yl)-2-oxa-5,8-diazaspiro[3.5]nonan-5-yl)-2-fluoro-3-(2-methylpyrimidin-4-yl) prop-2-en-1-one] |
| < 10 | CCc1c(F)ccc2cccc(-c3ncc4c(N5CCN(C(=O)/C(F)=C/c6ccnc(C)n6)C6(COC6)C5)nc(OC[C@@]56CCCN5C[C@H](F)C6)nc4c3F)c12 [Example 62, (Z)-1-(8-(7-(8-ethyl-7-fluoronaphthalen-1-yl)-8-fluoro-2-(((2R,7aS)-2-fluorotetrahydro-1H-pyrrolizin-7a(5H)-yl)methoxy)pyrido[4,3-d]pyrimidin-4-yl)-2-oxa-5,8-diazaspiro[3.5]nonan-5-yl)-2-fluoro-3-(2-methylpyrimidin-4-yl) prop-2-en-1-one] |
| < 10 | C#Cc1c(F)ccc2cccc(-c3ncc4c(N5CCN(C(=O)/C(F)=C/c6cc(C)nc(C)n6)C6(COC6)C5)nc(OC[C@@]56CCCN5C[C@H](F)C6)nc4c3F)c12 [Example 63, (Z)-3-(2,6-dimethylpyrimidin-4-yl)-1-(8-(7-(8-ethynyl-7-fluoronaphthalen-1-yl)-8-fluoro-2-(((2R,7aS)-2-fluorotetrahydro-1H-pyrrolizin-7a(5H)-yl)methoxy)pyrido[4,3-d]pyrimidin-4-yl)-2-oxa-5,8-diazaspiro[3.5]nonan-5-yl)-2-fluoroprop-2-en-1-one] |
| < 10 | C=CC(=O)N1[C@H](C)CN(c2nc(OC[C@@]34CCCN3C[C@H](F)C4)nc3c(F)c(-c4cccc5ccc(F)c(F)c45)ncc23)CC12COC2 [Example 64, 1-((R)-8-(7-(7,8-difluoronaphthalen-1-yl)-8-fluoro-2-(((2R,7aS)-2-fluorotetrahydro-1H-pyrrolizin-7a(5H)-yl)methoxy)pyrido[4,3-d]pyrimidin-4-yl)-6-methyl-2-oxa-5,8-diazaspiro[3.5]nonan-5-yl) prop-2-en-1-one] |
| 10 to 100 | C=CC(=O)N1CC(C)N(c2nc(OC[C@@]34CCCN3C[C@H](F)C4)nc3c(F)c(-c4cccc5cccc(Cl)c45)ncc23)CC12COC2 (stereo partly drawn) [Example 65] |
| 10 to 100 | CN1CC[C@@H]1/C=C/C(=O)N1CCN(c2nc(OC[C@@]34CCCN3C[C@H](F)C4)nc3c(F)c(-c4cccc5ccc(F)c(F)c45)ncc23)CC12COC2 [Example 67] |
| < 10 | O=C(/C=C/CN1C[C@H]2C[C@@H]1CO2)N1CCN(c2nc(OC[C@@]34CCCN3C[C@H](F)C4)nc3c(F)c(-c4cccc(Cl)c4C(F)(F)F)ncc23)CC12COC2 [Example 68, (E)-4-((1R,4R)-2-oxa-5-azabicyclo[2.2.1]heptan-5-yl)-1-(8-(7-(3-chloro-2-(trifluoromethyl)phenyl)-8-fluoro-2-(((2R,7aS)-2-fluorotetrahydro-1H-pyrrolizin-7a(5H)-yl)methoxy)pyrido[4,3-d]pyrimidin-4-yl)-2-oxa-5,8-diazaspiro[3.5]nonan-5-yl) but-2-en-1-one] |
| 100 to 500 | Cc1cc(/C=C/C(=O)N2CCN(c3nc(OC[C@@]45CCCN4C[C@H](F)C5)nc4c(F)c(-c5cccc(Cl)c5C(F)(F)F)ncc34)CC23COC3)nc(C)n1 [Example 69] |
| ≥ 500 | C=CC(=O)N1[C@@H](C)CN(c2nc(OC[C@@]34CCCN3C[C@H](F)C4)nc3c(F)c(-c4cccc5ccc(F)c(F)c45)ncc23)CC12COC2 [Example 70] |
| < 10 | CN1CC[C@@H]1/C=C/C(=O)N1CCN(c2nc(OC[C@@]34CCCN3C[C@H](F)C4)nc3c(F)c(-c4cc(O)cc(Cl)c4C4CC4)ncc23)CC12COC2 [Example 73, (E)-1-(8-(7-(3-chloro-2-cyclopropyl-5-hydroxyphenyl)-8-fluoro-2-(((2R,7aS)-2-fluorotetrahydro-1H-pyrrolizin-7a(5H)-yl)methoxy)pyrido[4,3-d]pyrimidin-4-yl)-2-oxa-5,8-diazaspiro[3.5]nonan-5-yl)-3-((R)-1-methylazetidin-2-yl) prop-2-en-1-one] |
| ≥ 500 | C=CC(=O)N1CCN(c2nc(OC[C@@]34CCCN3C[C@H](F)C4)nc3c(F)c(-c4n[nH]c5cccc(Cl)c45)ncc23)CC12COC2 [Example 75] |
| 10 to 100 | O=C(/C=C/CN1CC2CC(C1)O2)N1CCN(c2nc(OC[C@@]34CCCN3C[C@H](F)C4)nc3c(F)c(-c4cccc(Cl)c4C(F)(F)F)ncc23)CC12COC2 [Example 77] |
| ≥ 500 | C=C(F)C(=O)N1CCN(c2nc(OC[C@@]34CCCN3C[C@H](F)C4)nc3c(F)c(-c4cc(O)cc(Cl)c4C4CC4)ncc23)CC12COC2 [Example 79] |
| 10 to 100 | C=CC(=O)N1CCN(c2nc(OC[C@@]34CCCN3C[C@H](F)C4)nc3c(F)c(-c4cccc5ccc(F)c(F)c45)ncc23)C[C@@]12CCOC2 [Example 80] |
| 100 to 500 | C=CC(=O)N1CCN(c2nc(OC[C@@]34CCCN3C[C@H](F)C4)nc3c(F)c(-c4cccc5cccc(Cl)c45)ncc23)CC12CCOC2 (stereo partly drawn) [Example 84] |
| < 10 | C=CC(=O)N1CCN(c2nc(OC[C@@]34CCCN3C[C@H](F)C4)nc3c(F)c(-c4cc(O)cc(Cl)c4C4CC4)ncc23)CC12CCOC2 (stereo partly drawn) [Example 85, 1-(9-(7-(3-chloro-2-cyclopropyl-5-hydroxyphenyl)-8-fluoro-2-(((2R,7aS)-2-fluorotetrahydro-1H-pyrrolizin-7a(5H)-yl)methoxy)pyrido[4,3-d]pyrimidin-4-yl)-2-oxa-6,9-diazaspiro[4.5]decan-6-yl) prop-2-en-1-one] |
| 100 to 500 | C=CC(=O)N1CCN(c2nc(OC[C@@]34CCCN3C[C@H](F)C4)nc3c(F)c(-c4cccc5cccc(Cl)c45)ncc23)C[C@@]12CCOC2 [Example 88] |
| 10 to 100 | C=CC(=O)N1CCN(c2nc(OC[C@@]34CCCN3C[C@H](F)C4)nc3c(F)c(-c4ccc(F)c5sc(N)nc45)c(C(F)(F)F)cc23)CC12CCOC2 (stereo partly drawn) [Example 90] |
| ≥ 500 | C=CC(=O)N1CCN(c2nc(OC[C@@]34CCCN3C[C@H](F)C4)nc3c(F)c(-c4ccc(F)c5sc(N)nc45)c(C(F)(F)F)cc23)C[C@@]12CCOC2 [Example 93] |
| ≥ 500 | Cc1nccc(/C=C/C(=O)N2CCN(c3nc(OC[C@@]45CCCN4C[C@H](F)C5)nc4c(F)c(-c5ccccc5C(F)F)ncc34)CC23COC3)n1 [Example 94] |

Continued, compound first:

| Compound | IC50 [nM] |
| --- | --- |
| Cc1nccc(/C=C(\F)C(=O)N2CCN(c3nc(OC[C@@]45CCCN4C[C@H](F)C5)nc4c(F)c(-c5cccc6cccc(Cl)c56)ncc34)CC23COC3)n1 [Example 61] | ≥ 500 |
| C#Cc1c(F)ccc2cccc(-c3ncc4c(N5CCN(C(=O)/C=C/[C@H]6CCN6C)C6(COC6)C5)nc(OC[C@@]56CCCN5C[C@H](F)C6)nc4c3F)c12 [Example 66] | 10 to 100 |
| CN(C)C/C=C/C(=O)N1CCN(c2nc(OC[C@@]34CCCN3C[C@H](F)C4)nc3c(F)c(-c4cccc(Cl)c4C(F)(F)F)ncc23)CC12COC2 [Example 71] | 100 to 500 |
| C=CC(=O)N1[C@H](C)CN(c2nc(OC[C@@]34CCCN3C[C@H](F)C4)nc3c(F)c(-c4cccc5cccc(Cl)c45)ncc23)CC12COC2 [Example 72] | 100 to 500 |
| C=CC(=O)N1[C@@H](C)CN(c2nc(OC[C@@]34CCCN3C[C@H](F)C4)nc3c(F)c(-c4cccc5cccc(Cl)c45)ncc23)CC12COC2 [Example 74] | ≥ 500 |
| CN1CC[C@@H]1/C=C/C(=O)N1CCN(c2nc(OC[C@@]34CCCN3C[C@H](F)C4)nc3c(F)c(-c4cccc(Cl)c4C(F)(F)F)ncc23)CC12COC2 [Example 76] | ≥ 500 |
| C=CC(=O)N1CCN(c2nc(OC[C@@]34CCCN3C[C@H](F)C4)nc3c(F)c(-c4cc(O)cc(Cl)c4C4CC4)c(Cl)cc23)CC12COC2 [Example 78, 1-(8-(6-chloro-7-(3-chloro-2-cyclopropyl-5-hydroxyphenyl)-8-fluoro-2-(((2R,7aS)-2-fluorotetrahydro-1H-pyrrolizin-7a(5H)-yl)methoxy)quinazolin-4-yl)-2-oxa-5,8-diazaspiro[3.5]nonan-5-yl) prop-2-en-1-one] | < 10 |
| C=CC(=O)N1CCN(c2nc(OC[C@@]34CCCN3C[C@H](F)C4)nc3c(F)c(-c4cccc5ccc(F)c(F)c45)ncc23)C[C@]12CCOC2 [Example 81] | ≥ 500 |
| C=CC(=O)N1CCN(c2nc(OC[C@@]34CCCN3C[C@H](F)C4)nc3c(F)c(-c4cccc5ccc(F)c(F)c45)ncc23)CC12CCOC2 (stereo partly drawn) [Example 82] | 10 to 100 |
| C=CC(=O)N1CCN(c2nc(OC[C@@H]3CCCN3C)nc3c(F)c(-c4cccc5cccc(Cl)c45)ncc23)CC12CCOC2 (stereo partly drawn) [Example 83] | ≥ 500 |
| C=CC(=O)N1CCN(c2nc(OC[C@@]34CCCN3C[C@H](F)C4)nc3c(F)c(-c4ccc(F)c5sc(N)nc45)c(Cl)cc23)CC12CCOC2 (stereo partly drawn) [Example 86] | 100 to 500 |
| C=CC(=O)N1CCN(c2nc(OC[C@@]34CCCN3C[C@H](F)C4)nc3c(F)c(-c4ccc(F)c5sc(N)nc45)c(Cl)cc23)C[C@]12CCOC2 [Example 87] | ≥ 500 |
| C=CC(=O)N1CCN(c2nc(OC[C@@]34CCCN3C[C@H](F)C4)nc3c(F)c(-c4cccc5cccc(Cl)c45)ncc23)C[C@]12CCOC2 [Example 89] | ≥ 500 |
| C=CC(=O)N1CCN(c2nc(OC[C@@]34CCCN3C[C@H](F)C4)nc3c(F)c(-c4ccc(F)c5sc(N)nc45)c(Cl)cc23)C[C@@]12CCOC2 [Example 91] | 100 to 500 |
| C=CC(=O)N1CCN(c2nc(OC[C@@]34CCCN3C[C@H](F)C4)nc3c(F)c(-c4ccc(F)c5sc(N)nc45)c(C(F)(F)F)cc23)C[C@]12CCOC2 [Example 92] | 10 to 100 |
